Patent US20080269304A1, “Parakeratosis inhibitor, pore-shrinking agent and skin preparation for external use” (priority 2002, published 2008)

How the values were obtained:
[1] = tested on: parakeratosis caused by oleic acid; assay: Test on parakeratosis inhibitory action (oleic acid applied on the back of a hairless mouse); assay type: in vivo; details: for Incidence of Parakeratosis (Average of 4 mice): 100 μL, 3 days, grades of 1 to 4; for Effect on parakeratosis caused by oleic acid (in words): summary of Tables 2 and 3, hairless mouse
Method: An aqueous solution containing 3% each of GABA, glycine, D-glutamic acid and L-glutamic acid was prepared, and pH of each solution was adjusted to nutrality, if necessary. An aqueous solution containing 10 mM each of GABA, bicuculline methobromide (antagonist to GABA receptor type A), MK-801, muscimol, isogubacin, ATP, suramin, PPADS and TNP-ATP was also prepared.
Thereafter, 100 μL of sample solution or reference solution was applied. This procedure was repeated for 3 days, and the keratin layer on the back was peeled with a tape. The nucleus of the keratin layer was stained with hematoxylin, the number of nuclear cells was counted under a microscope, and the results were evaluated in four grades of 1 to 4.

[2] = tested on: pores; assay: Test on pore-shrinking action (replicas of cheek pores); details: for Decision of Replica of Pores (Average of n = 5): 3% sample solution on cheek twice a day for 1 month, difference of scores (13 grades of 1 to 13) before and after the test; for Pore-shrinking effect (in words): summary of Table 4, 3% solutions
[3] = tested on: Epidermal keratinocyte; assay: Excitatory action test of cells with oleic acid (intracellular calcium, fura-2-AM); assay type: cell-based; details: summary of Table 1
Method: Epidermal keratinocyte was cultivated on an appropriate medium, for example, KGM medium, according to the conventional method. The cultured cells were seeded on a cover glass chamber and cultivated there a day before measuring calcium ions. An appropriate buffer solution, for example BSS (balanced salt solution) and a calcium sensitive fluorescent pigment (fura-2-AM) were added in the cultured cell at a concentration of about 2 μM on the next day, and the fluorescent pigment was allowed to be incorporated into the cell by incubating under an appropriate condition (for example 30 minutes at 37° C.). After completing intake of the pigment, the same buffer solution (fresh BSS) was added. […] The same measurement was carried out by adding only the same buffer solution (BSS). The fluorescence intensity at 340 nm was divided by the fluorescence intensity at 380 nm for determining the calcium concentration according to the conventional method.

[4] = Application Test of 3% Oleic Acid Solution, sample 10 mM, water reference 2.0
[5] = Application Test of 30% Oleic Acid Solution, sample 3% solution, water reference 2.5

| Compound | Incidence of Parakeratosis (Average of 4 mice) [1, 4] | Effect on parakeratosis caused by oleic acid (in words) [1] | Decision of Replica of Pores (Average of n = 5) [2] | Pore-shrinking effect (in words) [2] | Incidence of Parakeratosis (Average of 4 mice) [1, 5] | Excitatory function of the cell (in words) [3] |
| --- | --- | --- | --- | --- | --- | --- |
| Nc1ncnc2c1ncn2[C@@H]1O[C@H](COP(=O)(O)OP(=O)(O)OP(=O)(O)O)[C@@H](O)[C@H]1O [ATP] | 2.3 | worsens parakeratos is |  |  |  |  |
| N[C@H](CCC(=O)O)C(=O)O [D-Glutamic Acid, D-glutamic acid] |  | improved parakeratosis | −0.4 | excellent pore-shrinking effects | 2.0 |  |
| NCCCC(=O)O [GABA, γ-aminobutyric acid] | 1.5 | improved parakeratosis | −1.0 | excellent pore-shrinking effects | 1.5 |  |
| NCC(=O)O [Glycine, glycine] |  | improved parakeratosis | −1.2 | excellent pore-shrinking effects | 1.3 |  |
| O=C(O)C1=CCNCC1 [Isogubacin, isogubacin] | 1.3 | improved parakeratosis |  |  |  |  |
| N[C@@H](CCC(=O)O)C(=O)O [L-Glutamic Acid, L-glutamic acid] |  | worsens parakeratosis |  |  | 3.0 |  |
| C[C@]12N[C@H](Cc3ccccc31)c1ccccc12 [MK-801, dizocylpin] | 1.0 | improved parakeratosis |  |  |  |  |
| NCc1cc(=O)[nH]o1 [Muscimol, muscimol] | 1.3 | improved parakeratosis |  |  |  |  |
| CCCCCCCC/C=C\CCCCCCCC(=O)O [Oleic Acid, oleic acid] |  |  |  |  |  | has an excitatory function |
| Cc1nc(N=Nc2ccc(S(=O)(=O)O)cc2S(=O)(=O)O)c(COP(=O)(O)O)c(C=O)c1O [PPADS, pyridoxal phosphate-6-azophenyl-2′,4′-disulfonic acid] | 1.8 | improved parakeratosis |  |  |  |  |
| Cc1ccc(C(=O)Nc2ccc(S(=O)(=O)O)c3cc(S(=O)(=O)O)cc(S(=O)(=O)O)c23)cc1NC(=O)c1cccc(NC(=O)Nc2cccc(C(=O)Nc3cc(C(=O)Nc4ccc(S(=O)(=O)O)c5cc(S(=O)(=O)O)cc(S(=O)(=O)O)c45)ccc3C)c2)c1 [Suramin, suramin] | 1.5 | improved parakeratosis |  |  |  |  |
| C[N+]1(C)CCc2cc3c(cc2[C@H]1[C@@H]1OC(=O)c2c1ccc1c2OCO1)OCO3.[Br-] [bicuculline methobromide] |  | inhibited parakeratosis inhibitory action |  |  |  |  |
| trinitrophenyl-ATP [TNP-ATP] | 1.5 | improved parakeratosis |  |  |  |  |
